Reference: patent US6743795B1, “3-nitropyridine derivaives and the pharmaceutical compositions containing said derivatives” (Dong Wha Pharm. Ind. Co. Ltd., priority 1999, dated 2004)

Assays:
HBV polymerase = target: T1, HBV polymerase (Hepatitis B virus genotype A2 subtype adw2, UniProt P03159); experiment: In vitro reverse transcription activity of HBV polymerase (ELISA-type, DIG/biotin nucleotides); type: biochemical; settings: for inhibition at 0.01 µg/mL / inhibition at 0.1 µg/mL / inhibition at 1 µg/mL: read-out: Inhibition activity on HBV-RT (%)
T1 construct: made in house; host or cells: E. coli
Procedure: <Experiment 1> Inhibitory Effect on the In Vitro Activities of HBV Polymerase in Reverse Transcription
The following in vitro experiment was performed to determine the effect of the compounds of formula 1 on the activity of HBV polymerase during reverse transcription.
The present inventors submitted application for a patent concerning HBV polymerase genetically expressed in and separated from E.coli, the process of its preparation, and the method to measure the enzyme activities (KR 94-3918, KR 96-33998). In the present experiments HBV polymerase was used which had been expressed in E. coli as stated above.
The method used in the present invention to measure in vitro reverse transcribing activities of HBV polymerase is as follows. Basic principles are the same as for ELISA. Nucleotides with biotin or digoxigenin group attached are included as substrates and anti-DIG antibodies attached to peroxidase enzyme recognize the polymerized substrates.
To the wells coated with streptavidin, 20 μl of HBV polymerase, 20 μl of reaction mixture (10 μM each of DIG-UTP and Biotin-UTP, 46 mM Tris-HCl, 266 mM KCl, 27.5 mM MgCl2, 9.2 mM DTT substrate/primer nybrid), and 20 μl of test compound (added to 1, 0.1, and 0.01 μg/ml) were added and allowed to react at 22° C. for 15 hrs. During this reaction, HBV polymerase catalyzes DNA synthesis and digoxigenin and biotin attached to nucleotides form bonds with streptavidin coated on the bottom of wells. When the reaction was done, each well was washed with 250 μl of cleaning buffer (pH 7.0) for 30 seconds, which was repeated five times to remove remaining impurities. 200 μl of anti-DIG-POD antibody was added to each well and allowed to react for 1 hr at 37° C., and the wells were washed with cleaning buffer to remove impurities. 200 μl each of ABTS™, a substrate of peroxidase, was then added and allowed to react at room temperature for 30 min. Absorbance was measured at 405 nm using ELISA reader.
The percentage of reduction in HBV polymerase activities for reverse transcription was calculated using the group without test compound as a control and the results are shown in Table 3.

HBV = experiment: Proliferation of HBV in HBV producing cell line HepG 2.2.15 (competitive PCR of culture supernatant); type: cell-based, Hepatitis B virus; settings: HepG 2.2.15, one week; for inhibition at 0.01 µg/mL / inhibition at 0.1 µg/mL / inhibition at 1 µg/mL: Hepatitis B virus, HepG2.2.15, 168 h, read-out: Inhibitory effect on the HBV proliferation: Inhibition activity on HBV-RT (%)
Procedure: <Experiment 2> Inhibitory Effect on the Proliferation of HBV in HBV Producing Cell Line
The following experiment was performed to determine inhibitory effects of compounds of formula 1 on the proliferation of HBV producing cell line.
To test for antiviral effect, replication and proliferation of HBV were measured in HepG 2.2.15, a human liver cancer cell line.
The cell concentration was adjusted to 1×10^5 cells/ml and 1 ml was added to each well of a 24-well cell culture plate, which was then kept in a culture box for 3-4 days at 37° C. under 5% CO2 until cells grew sufficiently, changing culture medium everyday. When the cells matured sufficiently, the test compounds were added to the final concentrations of 0.01, 0.1, and 1 μg/ml. One week after the addition of test compounds, the culture solution was centrifuged at 5,000 rpm for 10 min. 25 μl of supernatant was transferred to a new tube and 5 μl of lysis solution [0.54N NaOH, 0.06% NP40] was added to each tube. After keeping the tube at 37° C. for 1 hr, 30 μl of neutralizing solution [0.09N HCl 0.1MTris-HCl, pH7.4] was added as a reaction solution for competitive polymerase chain reaction (PCR).
PCR was performed using genetic sequence of HBV core protein as a matrix. PCR reaction was carried out by adding 1 unit of Taq polymerase enzyme to 25 pmol of each primer, 250 μM dNTP, 5 μl of PCR reaction solution [0.54N NaOH, 0. 06% NP40, 0.09N HCl, 0.1M Tris-HCl, pH 7.4].
DNA polymerized by PCR was electrophoresed on Agarose gel and quantitatively analyzed using an image analyzer (Gel Doc 1000, Bio-Rad) in order to evaluate the effect of compounds of the present invention on the reduction of HBV proliferation.
3TC (lamivudine) was used as a positive control at the same concentrations as those of the test compounds. The percentage of reduction in HBV proliferation was calculated using the group without test compound as a control and the results are represented in Table 4.

[1] = target: T2, HIV reverse transcriptase (Human immunodeficiency virus type 1 group M subtype B, UniProt P03366); experiment: In vitro HIV reverse transcriptase activity (non-radioactive RT assay kit); type: biochemical
T2 construct: purchased Boehringer Mannheim
Procedure: <Experiment 3> Inhibitory Effect on the In Vitro HIV Enzyme Activities in Reverse Transcription
The following in vitro experiments were done to determine the effect of compounds of formula 1 on the reduction of HIV enzyme activities in reverse transcription.
Non-radioactive reverse transcriptase assay kit (Boehringer Mannheim) was used in the measurement of in vitro transcriptase activities. 20 μl (40 ng) of HIV transcriptase and 20 μl of reaction mixture containing matrix-primer hybrid poly(A)oligo(dT)15, DIG(digoxigenin)-dUTP, biotin-dUTP, and TTP were added to wells coated with streptavidin. Test compounds were also added at the final concentrations of 0.1 and 1 μg/ml and allowed to react at 37° C. for 1 hr. At this time, DNA is formed from RNA by the action of HIV reverse transcriptase, forming bonds with streptavidin coated on the bottom of wells because of digoxigenin and biotin moieties attached to nucleotides.
When the reaction was completed, each well was washed with 250 μl of cleaning buffer (pH7.0) for 30sec. five times to remove remaining impurities. 200 μl of anti-DIG-POD […] was added to each well, allowed to react at 37° C. for 1 hr and washed as above to remove impurities. 200 μl of ABTS™, a substrate for peroxidase, was added to each well and allowed to react at room temperature for 30 min. Absorbance at 405 nm was then read for each solution using ELISA reader and used for quantitative determination of inhibitory effect on the HIV transcriptase activities. The percentage of reduction in the activities of HIV reverse transcriptase was calculated using the group without test compound as control and the results are represented in Table 5.

T1 sequence (P03159 whole entry): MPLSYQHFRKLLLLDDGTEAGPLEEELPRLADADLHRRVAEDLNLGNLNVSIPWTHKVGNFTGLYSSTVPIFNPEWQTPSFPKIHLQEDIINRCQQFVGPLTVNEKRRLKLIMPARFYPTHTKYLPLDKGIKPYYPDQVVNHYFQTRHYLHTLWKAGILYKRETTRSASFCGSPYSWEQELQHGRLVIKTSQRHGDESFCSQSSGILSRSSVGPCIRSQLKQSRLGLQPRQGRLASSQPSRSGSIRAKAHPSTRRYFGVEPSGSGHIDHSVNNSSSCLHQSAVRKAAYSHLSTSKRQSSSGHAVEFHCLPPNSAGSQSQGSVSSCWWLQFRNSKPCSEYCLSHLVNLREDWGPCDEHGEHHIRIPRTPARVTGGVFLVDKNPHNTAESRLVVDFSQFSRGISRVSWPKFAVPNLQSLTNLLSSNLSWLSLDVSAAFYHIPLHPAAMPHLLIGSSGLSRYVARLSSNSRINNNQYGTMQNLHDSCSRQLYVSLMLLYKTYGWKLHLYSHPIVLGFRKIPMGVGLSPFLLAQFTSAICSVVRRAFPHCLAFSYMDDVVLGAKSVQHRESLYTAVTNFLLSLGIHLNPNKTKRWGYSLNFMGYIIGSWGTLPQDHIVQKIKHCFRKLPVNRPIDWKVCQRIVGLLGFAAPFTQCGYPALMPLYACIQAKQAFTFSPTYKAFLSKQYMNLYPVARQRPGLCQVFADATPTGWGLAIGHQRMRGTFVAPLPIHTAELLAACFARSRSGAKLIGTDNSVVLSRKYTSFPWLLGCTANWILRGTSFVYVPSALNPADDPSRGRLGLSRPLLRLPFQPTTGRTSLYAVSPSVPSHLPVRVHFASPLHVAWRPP

Compound | inhibition at 0.01 µg/mL (HBV polymerase; 0.01 μg/ml test compound) [%] | inhibition at 0.1 µg/mL (HBV polymerase; 0.1 μg/ml test compound) [%] | inhibition at 1 µg/mL (HBV polymerase; 1 μg/ml test compound) [%] | further results
6-(2-hydroxyethyl)methylamino-2-(1H-5-indazolylamino)-3-nitropyridine [Example 10] |  |  |  | Inhibition activity on HBV-RT (%) (HBV polymerase; 0.01 μg/ml test compound): 50%; Inhibition activity on HBV-RT (%) (HBV polymerase; 0.1 μg/ml test compound): 58%; Inhibition activity on HBV-RT (%) (HBV polymerase; 1 μg/ml test compound): 78%
CNc1ccc([N+](=O)[O-])c(Nc2ccc3[nH]ncc3c2)n1 [Example 3, 2-(1H-5-indazolylamino)-6-methyl amino-3-nitropyridine] |  |  |  | Inhibition activity on HBV-RT (%) (HBV polymerase; 0.01 μg/ml test compound): 20%; Inhibition activity on HBV-RT (%) (HBV polymerase; 0.1 μg/ml test compound): 47%; Inhibition activity on HBV-RT (%) (HBV polymerase; 1 μg/ml test compound): 58%; Inhibitory effect on the HBV proliferation: Inhibition activity on HBV-RT (%) (HBV; 0.1 μg/ml): 35%; Inhibitory effect on the HBV proliferation: Inhibition activity on HBV-RT (%) (HBV; 1 μg/ml): 53%
Nc1ccn([C@@H]2CS[C@H](CO)O2)c(=O)n1 [Example 3TC, lamivudine, reference compound] |  |  |  | inhibition at 0.01 µg/mL (HBV; 0.01 μg/ml): 48%; inhibition at 0.1 µg/mL (HBV; 0.1 μg/ml): 80%; inhibition at 1 µg/mL (HBV; 1 μg/ml): 99%
O=[N+]([O-])c1ccc(NC2CC2)nc1Nc1ccc2[nH]ncc2c1 [Example 8, 6-cyclopropylamino-2-(1H-5-indazolylamino)-3-nitropyridine] | 38 | 52 | 72 | inhibition at 0.01 µg/mL (HBV; 0.01 μg/ml): 25%; inhibition at 0.1 µg/mL (HBV; 0.1 μg/ml): 46%; inhibition at 1 µg/mL (HBV; 1 μg/ml): 65%
Nc1ccc([N+](=O)[O-])c(Nc2ccc3[nH]ncc3c2)n1 [Example 9, 6-amino-2-(1H-5-indazolylamino)-3-nitropyridine] | 40 | 59 | 80 | 
C[C@@H](CCO)Nc1ccc([N+](=O)[O-])c(Nc2ccc3cn[nH]c3c2)n1 [Example 13, 6-[(1S)-1-(hydroxyethyl)ethylamino]-2-(1H-6-indazolylamino)-3-nitropyridine] | 10 | 35 | 66 | 
COCC(C)Nc1ccc([N+](=O)[O-])c(Nc2ccc3[nH]ncc3c2)n1 (stereo not drawn) [Example 15, 2-(1H-5-indazolylamino)-6-(2-methoxy-1-methyl)ethylamino-3-nitropyridine] |  |  |  | Inhibition activity on HBV-RT (%) (HBV polymerase; 0.01 μg/ml test compound): 47%; Inhibition activity on HBV-RT (%) (HBV polymerase; 0.1 μg/ml test compound): 68%; Inhibition activity on HBV-RT (%) (HBV polymerase; 1 μg/ml test compound): 97%; Inhibitory effect on the HBV proliferation: Inhibition activity on HBV-RT (%) (HBV; 0.01 μg/ml): 36%; Inhibitory effect on the HBV proliferation: Inhibition activity on HBV-RT (%) (HBV; 0.1 μg/ml): 60%; Inhibitory effect on the HBV proliferation: Inhibition activity on HBV-RT (%) (HBV; 1 μg/ml): 95%
CN(C)CCNc1ccc([N+](=O)[O-])c(Nc2ccc3cn[nH]c3c2)n1 [Example 16, 6-[2-(dimethylamino)ethylamino]-2-(1H-6-indazolylamino)-3-nitropyridine] | 38 | 55 | 80 | Inhibitory effect on the activities of HIV reverse transcriptase: Inhibition activity on HIV-RT (%) ([1]; 0.1 μg/ml test compound): 51%; Inhibitory effect on the activities of HIV reverse transcriptase: Inhibition activity on HIV-RT (%) ([1]; 1 μg/ml test compound): 75%
CN1CCN(Nc2ccc([N+](=O)[O-])c(Nc3ccc4[nH]ncc4c3)n2)CC1 [Example 17, 2-(1H-5-indazolylamino)-6-(4-methyl-1-piperazinyl)amino-3-nitropyridine] | 41 | 52 | 75 | 
O=[N+]([O-])c1ccc(NCc2cccnc2)nc1Nc1ccc2[nH]ncc2c1 [Example 19, 2-(1H-5-indazolylamino)-3-nitro-6-(3-pyridyl)methylaminopyridine] | 42 | 58 | 91 | inhibition at 0.01 µg/mL (HBV; 0.01 μg/ml): 30%; inhibition at 0.1 µg/mL (HBV; 0.1 μg/ml): 51%; inhibition at 1 µg/mL (HBV; 1 μg/ml): 85%
CN1CCN(c2ccc([N+](=O)[O-])c(Nc3ccc4[nH]ncc4c3)n2)CC1 [Example 25, 2-(1H-5-indazolylamino)-6-(4-methyl-1-piperazinyl)-3-nitropyridine] | 35 | 54 | 88 | inhibition at 0.01 µg/mL (HBV; 0.01 μg/ml): 25%; inhibition at 0.1 µg/mL (HBV; 0.1 μg/ml): 46%; inhibition at 1 µg/mL (HBV; 1 μg/ml): 83%
CN1CCN(c2ccc([N+](=O)[O-])c(Nc3ccc4cn[nH]c4c3)n2)CC1 [Example 26, 2-(1H-6-indazolylamino)-6-(4-methyl-1-piperazinyl)-3-nitropyridine] | 18 | 40 | 63 | 
O=[N+]([O-])c1ccc(N2CCN(CCO)CC2)nc1Nc1ccc2cn[nH]c2c1 [Example 27, 6-[4-(2-hydroxyethyl)-1-piperazinyl]-2-(1H-6-indazolylamino)-3-nitropyridine] | 15 | 38 | 60 | Inhibitory effect on the activities of HIV reverse transcriptase: Inhibition activity on HIV-RT (%) ([1]; 0.1 μg/ml test compound): 45%; Inhibitory effect on the activities of HIV reverse transcriptase: Inhibition activity on HIV-RT (%) ([1]; 1 μg/ml test compound): 81%
O=[N+]([O-])c1ccc(N2CCC(O)CC2)nc1Nc1ccc2[nH]ncc2c1 [Example 28, 6-(4-hydroxy-1-piperidinyl)-2-(1H-5-indazolylamino)-3-nitropyridine] | 20 | 34 | 55 | 
O=[N+]([O-])c1ccc(N2CCC(O)CC2)nc1Nc1ccc2cn[nH]c2c1 [Example 29, 6-(4-hydroxy-1-piperidinyl)-2-(1H-6-indazolylamino)-3-nitropyridine] | 10 | 35 | 52 | 
